The values that follow come from patent US20220016154A1, “TREATMENT OF NEURONAL MOSAICISM IN DEMENTIA” (Crownview Medical Group, Inc., priority 2020, published 2022).

The subject of one assay is HIV-associated dementia. Particulars: HIV patients, antiretroviral therapy; cited from earlier work.
The subject of assay [1] is patient with advanced dementia. Description: Case report: dementia patient administered a regimen of ZDV (Retrovir), clinical observation and SMMSE. In kind it is in vivo, human. Particulars: one patient, SMMSE 2 to 4 before treatment; after 8 weeks of treatment.

On to `Cc1cn([C@H]2C[C@H](N=[N+]=[N-])[C@@H](CO)O2)c(=O)[nH]c1=O` [Zidovudine], for which the “progression of HIV-associated dementia” value with HIV-associated dementia is “slowed”. In assay [1], the SMMSE scores entry was “not consistently improved”; the “ability to remember and communicate about where they lived” value is “specific improvements in their ability to remember and communicate about where they lived”; the “alertness and awareness of surroundings” value is “more alert and aware of their surroundings”.
